Assay results reported in US11826431B2, “Polypeptide-based ocular absorption enhancer and application thereof” (Fudan University, priority 2017, dated 2023).
Where a SMILES comes first, the peptide text is derived from it. The star is where a group is joined. 5FAM = O=C1OC2(c3ccc(O)cc3Oc3cc(O)ccc32)c2ccc(C(=O)*)cc21

Key:
[1] = Intraocular distribution of penetratin derivative-FAM complexes after conjunctival sac administration; assay type: in vivo, mice
Method: Evaluation of intraocular distribution of the covalently linked complex of Penetratin derivatives and small molecules: 5 μL of a solution of complex of penetratin derivative and FAM (concentration 30 μM) was dripped into the conjunctival sac of male mice, and the eyelids were gently closed to distribute the solution evenly. The solution was administered every 10 minutes for a total of 3 times, and taking the time of the last administration as zero time. At a preset time point, mice were killed by intraperitoneal injection of excessive chloral hydrate, and the eyeballs of the mice were removed, fixed with Davidson's solution for 0.5 h, and embedded. Frozen longitudinal sections of eyeballs were prepared and the nuclei were stained with DAPI, and the distribution of polypeptides in the eye parts was observed under an inverted fluorescence microscope.

[2] = In vitro tissue permeability, isolated sclera (diffusion cells); assay type: in vitro ADME, rabbit
Method: (§1) Evaluation of in vitro tissue permeability of the covalently linked complex of Penetratin derivatives and small molecular substances: the experimental rabbits were anesthetized with pentobarbital sodium (30 mg/kg), which is injected via ear vein, and sacrificed by injection with excessive chloral hydrate (150 mg/kg). After separation of the conjunctiva, carefully removed the entire eyeball, make a circumcision at about 2 mm from the limbus of cornea and remove the cornea, and removed the iris and other tissues to obtain an experimental cornea. The rest of the eyeballs were removed from the retina and other tissues to obtain an experimental sclera. Both the cornea and sclera were carefully washed with Ringer's solution 3 times before use. The experiment was started within 30 min after the animals were sacrificed. The freshly isolated cornea and sclera were carefully sandwiched between two diffusion cells, with the epithelial surface facing a diffusion cell (supply cell) on the left, the diffusion window diameter was 10.25 mm, and the diffusion area was 0.825 cm^2. 3.5 mL of Ringer's solutions were added to the supply cell and a receiving cell on the right, respectively. Circulating water was passed therein, and the water temperature was kept at 34° C.±0.5° C. […] Immediately after the experiment, the fluorescence intensity of the sample was measured. […]

[3] = In vitro tissue permeability, isolated cornea (diffusion cells); assay type: in vitro ADME, rabbit
Method: as §1

[4] = 10 min after conjunctival sac administration (FIG. 6B)
[5] = 7.5 μM complex with FAM, 34° C.
[6] = DAPI stained frozen sections after permeability experiment

distribution in the cornea [1, 4]: significantly less distributed
distribution in the retina [1, 4]: less distributed
FAM fluorescence signal in anterior and posterior segment of the eye compared with wild-type penetratin ([1]; 10 minutes after eye drops, 30 μM, 5 μL x 3): weakened
amount entering the eye (cornea and retina) compared with wild-type penetratin ([1]; semi-quantitative analysis (FIG. 6C)): significantly less
Papp value relative to wild-type penetratin, isolated sclera [2, 5]: ⅔
fluorescence signal in isolated sclera sections compared with wild-type penetratin group [2, 6]: significantly weaker
Papp value relative to wild-type penetratin, isolated cornea [3, 5]: ⅕
fluorescence in isolated cornea sections compared with wild-type penetratin group [3, 6]: no obvious fluorescence signal
Compound: C[C@H](NC(=O)[C@H](C)NC(=O)[C@H](CCCCN)NC(=O)[C@H](C)NC(=O)[C@H](CCC(N)=O)NC(=O)[C@@H](N)CCCNC(=N)N)C(=O)N[C@@H](C)C(=O)N[C@@H](CCC(N)=O)C(=O)N[C@@H](CC(N)=O)C(=O)N[C@@H](CCCNC(=N)N)C(=O)N[C@@H](CCCNC(=N)N)C(=O)N[C@@H](C)C(=O)N[C@@H](CCCCN)C(=O)N[C@@H](C)C(=O)N[C@@H](CCCCN)C(=O)N[C@@H](CCCCN)C(=O)N[C@@H](CCCCNC(=O)c1ccc2c(c1)C(=O)OC21c2ccc(O)cc2Oc2cc(O)ccc21)C(=O)O [6A, RQAKAAAQNRRAKAKKK-FAM] (H-RQAKAAAQNRRAKAKKK(5FAM)-OH)
